The nature of series [1]: Half-life in mouse liver microsomes.
Series [2] can be described thus: Half-life in human liver microsomes. On the technique in general: Liver microsomes are vesicles of endoplasmic reticulum, rich in cytochrome P450 enzymes.
The nature of series [3]: Half-life in rat liver microsomes.
Series [4] deals with T1, human MMP-9 (Homo sapiens, UniProt P14780). Put plainly: biochemical. The conditions noted are these: for koff: read-out: koff, MMP-9; for kon: read-out: kon, MMP-9.
For series [5], the target named is T2, human MMP-2 (Homo sapiens, UniProt P08253).
T2 sequence (P08253 110-660): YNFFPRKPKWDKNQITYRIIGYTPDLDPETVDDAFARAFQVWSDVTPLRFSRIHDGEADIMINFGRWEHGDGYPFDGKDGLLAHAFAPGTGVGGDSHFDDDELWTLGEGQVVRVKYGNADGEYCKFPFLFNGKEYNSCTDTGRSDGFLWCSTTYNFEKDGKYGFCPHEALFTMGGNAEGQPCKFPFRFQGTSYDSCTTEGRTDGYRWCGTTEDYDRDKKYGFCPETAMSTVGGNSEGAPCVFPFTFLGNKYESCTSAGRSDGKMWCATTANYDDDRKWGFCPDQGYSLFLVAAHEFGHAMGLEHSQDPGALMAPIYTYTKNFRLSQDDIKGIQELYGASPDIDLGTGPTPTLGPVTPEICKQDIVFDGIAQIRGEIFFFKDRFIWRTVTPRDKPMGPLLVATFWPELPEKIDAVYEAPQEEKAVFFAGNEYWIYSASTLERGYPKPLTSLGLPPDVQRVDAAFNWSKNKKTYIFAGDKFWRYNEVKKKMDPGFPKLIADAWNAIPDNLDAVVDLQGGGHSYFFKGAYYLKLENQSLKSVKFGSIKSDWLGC
The settings on record: read-out: Ki, MMP-2.

Series [6] deals with T1, human MMP-9. The conditions noted are these: read-out: Ki, MMP-9.
Series [7] concerns the target T2, human MMP-2. Briefly: biochemical. The settings on record: for koff: read-out: koff, MMP-2; for kon: read-out: kon, MMP-2.
The nature of series [8]: Half-life in human blood at 37° C. The conditions noted are these: for half-life: human, blood.
A short description of series [9]: Half-life in human plasma at 37° C. The conditions noted are these: for half-life: human, plasma.
For series [10], the system named is Ames II mixed strains and strain TA98. Briefly: Ames mutagenicity assay (reverse mutations). The settings on record: with and without rat liver S9 metabolic activation; six concentrations up to 1 mg/mL. For orientation: The Ames test detects mutagens through reverse mutation in bacteria.
Series [11] has as its target T3, MMP-14 (Homo sapiens, UniProt P50281). Briefly: biochemical.
Another series concerns the target T4, MMP-1 (Homo sapiens, UniProt P03956).
T4 sequence (P03956 100-469): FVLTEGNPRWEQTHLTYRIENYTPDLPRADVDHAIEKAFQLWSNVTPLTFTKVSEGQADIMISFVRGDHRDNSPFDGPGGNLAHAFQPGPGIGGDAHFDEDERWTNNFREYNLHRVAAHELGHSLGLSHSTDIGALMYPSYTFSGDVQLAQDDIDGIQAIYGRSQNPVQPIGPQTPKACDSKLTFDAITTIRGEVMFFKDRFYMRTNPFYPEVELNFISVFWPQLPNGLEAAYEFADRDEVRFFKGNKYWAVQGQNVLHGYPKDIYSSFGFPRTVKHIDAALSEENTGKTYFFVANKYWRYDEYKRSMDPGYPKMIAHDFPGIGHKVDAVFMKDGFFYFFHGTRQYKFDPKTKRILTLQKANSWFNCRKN
Put plainly: biochemical. The conditions noted are these: read-out: inhibition of MMP-1.

In another series the target is T5, MMP-7 (Homo sapiens, UniProt P09237).
T5 sequence (P09237 95-267): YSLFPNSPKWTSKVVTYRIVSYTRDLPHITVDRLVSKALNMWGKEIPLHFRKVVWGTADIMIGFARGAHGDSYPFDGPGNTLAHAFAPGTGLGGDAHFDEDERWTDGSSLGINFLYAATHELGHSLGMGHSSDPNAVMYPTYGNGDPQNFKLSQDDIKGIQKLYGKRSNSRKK
The conditions noted are these: read-out: Ki, MMP-7.

Series [12] addresses T3, MMP-14. The settings on record: read-out: Ki, MMP-14.
The next series addresses MMP-3 (Homo sapiens, UniProt P08254). Briefly: biochemical. The conditions noted are these: read-out: inhibition of MMP-3.
The conditions of series [13]: rat; cited from earlier work.
For series [14] the following is noted: cited from earlier work.
The next series addresses other MMPs. The settings on record: background, earlier reports; cited from earlier work.
The conditions of series [15]: mice; cited from earlier work.
For series [16], the target named is T2, human MMP-2. The settings on record: read-out: Ki for human MMP-2; background, earlier reports; cited from earlier work.
Series [17] addresses T1, human MMP-9. The conditions noted are these: read-out: Ki for human MMP-9; background, earlier reports; cited from earlier work.

One may read the koff as a measure of how fast the partners let go of each other. Usually kon stands for a measure of how fast the partners come together. The Ki is a measure of affinity in units of concentration, obtained from inhibition or displacement. Usually solubility stands for the concentration that dissolves in the medium under given conditions. In general, half-life refers to the time needed for the level to fall by half in the phase considered. The low end stands for fast loss, the high end for slow loss. In general, inhibition refers to the relative decrease from the control value, in per cent.

Structures are written as SMILES. Converted amounts (≈) assume the structure as drawn. Where a name gives a salt, the structure may show the parent alone. Read-outs that look alike come from different tables or passages of the source.

T1 sequence (P14780 107-707 limits assumed): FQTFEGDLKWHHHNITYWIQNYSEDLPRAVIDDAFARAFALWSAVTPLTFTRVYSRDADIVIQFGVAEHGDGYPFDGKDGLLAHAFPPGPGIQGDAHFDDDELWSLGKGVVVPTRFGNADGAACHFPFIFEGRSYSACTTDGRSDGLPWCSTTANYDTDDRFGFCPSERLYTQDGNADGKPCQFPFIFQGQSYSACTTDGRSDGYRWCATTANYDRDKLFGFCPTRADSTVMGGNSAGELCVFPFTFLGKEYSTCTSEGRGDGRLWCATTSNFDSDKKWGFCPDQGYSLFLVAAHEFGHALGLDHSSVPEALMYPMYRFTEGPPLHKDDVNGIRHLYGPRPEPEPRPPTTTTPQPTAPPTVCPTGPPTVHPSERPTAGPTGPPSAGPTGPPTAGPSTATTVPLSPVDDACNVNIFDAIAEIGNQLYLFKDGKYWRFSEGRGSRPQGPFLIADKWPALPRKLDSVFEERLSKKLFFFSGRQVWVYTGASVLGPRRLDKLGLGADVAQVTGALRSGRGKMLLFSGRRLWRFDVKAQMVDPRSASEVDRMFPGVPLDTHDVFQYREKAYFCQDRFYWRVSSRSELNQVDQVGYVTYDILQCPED
Sequence of MMP-3 (P08254 100-477): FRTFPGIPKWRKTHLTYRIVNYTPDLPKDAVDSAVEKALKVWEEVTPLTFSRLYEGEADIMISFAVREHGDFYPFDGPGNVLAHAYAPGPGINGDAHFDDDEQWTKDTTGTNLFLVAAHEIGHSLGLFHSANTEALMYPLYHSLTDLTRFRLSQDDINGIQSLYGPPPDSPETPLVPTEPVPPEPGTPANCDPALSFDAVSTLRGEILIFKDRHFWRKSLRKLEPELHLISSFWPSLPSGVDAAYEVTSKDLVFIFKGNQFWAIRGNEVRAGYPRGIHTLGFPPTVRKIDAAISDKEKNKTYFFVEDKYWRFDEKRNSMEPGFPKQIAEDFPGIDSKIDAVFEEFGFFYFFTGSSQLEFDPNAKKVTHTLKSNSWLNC

Consider `Nc1ccc(Oc2ccc(S(=O)(=O)CC3CS3)cc2)cc1` (stereo not shown) [Compound 6, 4-[4-((Thiiran-2-yl)methylsulfonyl)phenoxy]benzamine.HCl salt], for which, in series [1], the “Half-life in liver microsomes, Mouse” value was 27.3 ± 2.1 min. Moreover, the “Half-life in liver microsomes, Human” value in series [2] is listed as more than 60 min. Besides, the “Half-life in liver microsomes, Rat” value in series [3] is recorded as 23.4 ± 0.7 min.
Take `NCC(=O)Nc1ccc(Oc2ccc(S(=O)(=O)CC3CS3)cc2)cc1` (stereo not shown) [Compound 11a]: the results for the koff at human MMP-9 [4] and at human MMP-2 [7] were 0.00065 ± 6e-05 s⁻¹ and 0.00082 ± 9e-05 s⁻¹, respectively. For the same compound, the kon at human MMP-9 [4] came out at 210 ± 40 M⁻¹ s⁻¹; at human MMP-2 [7] it was 1900 ± 600 M⁻¹ s⁻¹. Further, the Ki came out at 440 ± 50 nM at human MMP-2 [5] and 3100 ± 300 nM on human MMP-9 [6]. In [8] (human blood, 37° C.), the “Half-life in human blood at 37° C.” value was determined as 27.1 ± 2.5 min. In addition, the “Half-life in human plasma at 37° C.” value in series [9] (human plasma, 37° C.) is reported as 32.4 ± 2.7 min.
`NCCCCC(N)C(=O)Nc1ccc(Oc2ccc(S(=O)(=O)CC3CS3)cc2)cc1` (stereo not shown) [Compound 11b] showed a solubility in the series “Water solubility” (water, Water Solubility) of more than 10000 µg/mL. Besides, the koff at human MMP-9 [4] is 0.00042 ± 7e-05 s⁻¹; on human MMP-2 [7], 0.00021 ± 9e-05 s⁻¹. The kon is 270 ± 40 M⁻¹ s⁻¹ at human MMP-9 [4] and 3400 ± 100 M⁻¹ s⁻¹ on human MMP-2 [7]. The figures for the half-life in series [8] and in [9] were 15.3 ± 1.9 min and 25.1 ± 5.2 min, respectively.
As to `NC(CCC(=O)O)C(=O)Nc1ccc(Oc2ccc(S(=O)(=O)CC3CS3)cc2)cc1` (stereo not shown) [Compound 11c], in the series “Water solubility” (water, Water Solubility), the solubility is more than 10000 µg/mL. At human MMP-9 [4], the Ki turned out to be 5400 ± 300 nM, the koff was 0.0012 ± 7e-05 s⁻¹ and the kon turned out to be 2300 ± 100 M⁻¹ s⁻¹. On human MMP-2 [7], the koff was found to be 0.00018 ± 0.00016 s⁻¹ and the kon came to 2500 ± 100 M⁻¹ s⁻¹. For the same compound, the half-life in series [8] turned out to be 27.9 ± 3.8 min. The compound also showed a half-life in series [9] of 32.8 ± 3.6 min.
Regarding `N=C(N)NCCCC(N)C(=O)Nc1ccc(Oc2ccc(S(=O)(=O)CC3CS3)cc2)cc1` (stereo not shown) [Compound 11d], the “mutagenic potential (Ames mutagenicity assay)” value in series [10] is reported as “negative”. Also, the solubility in the series “Water solubility” (water, Water Solubility) was more than 10000 µg/mL. Also, the half-life in series [1] was more than 60 min; in series [8] it was 25.4 ± 0.1 min; in series [2], more than 60 min; in series [3] it was 59.3 ± 4.5 min; in series [9] it was 29.5 ± 0.7 min.
Compound `N=C(N)NCCCC(N)C(=O)NC(CCCNC(=N)N)C(=O)Nc1ccc(Oc2ccc(S(=O)(=O)CC3CS3)cc2)cc1` (stereo not shown) [Compound 11e] came in with a solubility in the series “Water solubility” (water, Water Solubility) of more than 10000 µg/mL. Besides, the half-life in series [8] was found to be 5.9 ± 0.6 min; in [9], 11.8 ± 0.5 min.
Take `Cc1oc(=O)oc1COC(=O)Nc1ccc(Oc2ccc(S(=O)(=O)CC3CS3)cc2)cc1` (stereo not shown) [Compound 14]: the solubility in “Water solubility” (Water Solubility, in 100% water, solubility calculated using ε of MIK-G6 (p-N-acetyl SB-3CT)) was 1.01 µg/mL (≈ 0.00212 mM). Besides, the inhibition at 80 µM on human MMP-9 [4] (read-out: inhibition of MMP-9) was determined as 37%. Also, the Ki at human MMP-2 [7] came to 2400 ± 600 nM. In series [9], the half-life was 1.6 ± 0.4 min.
Take `Nc1ccc(Oc2ccc(S(=O)(=O)CC3CS3)cc2)cc1O` (stereo not shown) [Compound 22, 2-Amino-5-(4-((thiiran-2-ylmethyl)sulfonyl)phenoxy)phenol]: the koff on MMP-14 [11] (read-out: koff, MMP-14) is 0.000702 ± 0.000161 s⁻¹; on human MMP-9 [4], 0.00053 ± 0.0001 s⁻¹; at human MMP-2 [7], 0.00014 ± 7e-05 s⁻¹. Further, the kon was 2690 ± 270 M⁻¹ s⁻¹ on MMP-14 [11] (read-out: kon, MMP-14); 1070 ± 120 M⁻¹ s⁻¹ on human MMP-9 [4]; 1700 ± 100 M⁻¹ s⁻¹ on human MMP-2 [7]. In addition, the Ki turned out to be 78 ± 43 nM on human MMP-2 [5], 490 ± 110 nM at human MMP-9 [6], 116000 ± 13000 nM on MMP-7 and 260 ± 70 nM on MMP-14 [12]. The inhibition at 300 µM worked out at 11% at MMP-1 and 54% on MMP-3.
Regarding `O=S(=O)(CC1CS1)c1ccc(Oc2ccccc2)cc1` (stereo not shown) [SB-3CT], the solubility in the series “Water solubility” (water, aqueous solubility) is approximately 2.45 µg/mL (≈ 0.008 mM). For the same compound, the “treatment in model of subarachnoid hemorrhage” value in [13] is reported as “effective”. For the same compound, in series [14] (administration at 6 hours after ischemia), the histological damage entry was “potently blocked”. Further, in [14] (mouse transient ischemia), the infarct volume was 30 % of control and the neurobehavioral scores entry is listed as “significantly improved”. Besides, the “Ki values for other MMPs” value at other MMPs is on record as “in the μM range at best”. Besides, the “treatment of viral-induced vascular leakage” value in [15] is listed as “effective”.
With `O=S(=O)(CC1CS1)c1ccc(Oc2ccc(O)cc2)cc1` (stereo not shown) [p-hydroxylated metabolite], the inhibition constant Ki was 6 ± 3 nM on human MMP-2 [16] and 160 ± 80 nM at human MMP-9 [17].

The record behind these values is patent publication US9867805B2, “Gelatinase inhibitors and prodrugs” (priority 2010, dated 2018).
